Calls of active or inactive are those of the source. The calls are words filed in the database; no cut-off is given here.
Legend:
Type in all cases: microsomes
Settings in all cases: Microsome
[1] = target: T1, 3-hydroxy-3-methylglutaryl-coenzyme A reductase (Rattus norvegicus) (UniProt P51639); test: Inhibition of enzyme activity in a rat hepatic microsomal HMG-CoA reductase at 100 uM; IA means inactive
T1 sequence (whole entry): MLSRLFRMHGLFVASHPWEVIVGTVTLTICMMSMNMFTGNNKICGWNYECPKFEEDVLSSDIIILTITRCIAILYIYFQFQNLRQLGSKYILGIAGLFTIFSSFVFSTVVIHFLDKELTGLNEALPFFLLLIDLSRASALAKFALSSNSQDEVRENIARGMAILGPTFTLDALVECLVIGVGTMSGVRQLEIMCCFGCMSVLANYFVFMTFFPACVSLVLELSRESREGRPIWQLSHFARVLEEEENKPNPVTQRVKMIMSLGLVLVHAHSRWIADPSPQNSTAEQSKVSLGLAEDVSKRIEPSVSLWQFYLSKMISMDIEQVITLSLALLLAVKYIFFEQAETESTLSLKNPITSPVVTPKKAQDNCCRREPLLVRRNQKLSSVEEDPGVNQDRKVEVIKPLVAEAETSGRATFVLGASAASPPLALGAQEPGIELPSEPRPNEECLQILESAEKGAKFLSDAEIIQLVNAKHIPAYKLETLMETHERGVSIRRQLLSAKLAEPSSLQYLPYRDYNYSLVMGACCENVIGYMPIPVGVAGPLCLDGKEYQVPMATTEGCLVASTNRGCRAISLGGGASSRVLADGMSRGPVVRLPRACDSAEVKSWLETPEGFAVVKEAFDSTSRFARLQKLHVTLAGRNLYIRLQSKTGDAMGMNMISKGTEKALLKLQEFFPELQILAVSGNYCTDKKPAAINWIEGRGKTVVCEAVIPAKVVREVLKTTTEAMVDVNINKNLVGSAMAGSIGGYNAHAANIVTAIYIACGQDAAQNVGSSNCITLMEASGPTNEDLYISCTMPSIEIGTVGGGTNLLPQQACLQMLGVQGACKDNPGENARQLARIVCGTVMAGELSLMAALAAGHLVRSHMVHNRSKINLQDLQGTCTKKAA

[2] = target: T1, 3-hydroxy-3-methylglutaryl-coenzyme A reductase (Rattus norvegicus); test: Inhibition of enzyme activity in a rat hepatic microsomal HMG-CoA reductase at 100 uM
[3] = target: T1, 3-hydroxy-3-methylglutaryl-coenzyme A reductase (Rattus norvegicus); test: Inhibition of enzyme activity in a rat hepatic microsomal HMG-CoA reductase at 100 uM IA means inactive

**Q.** How did the Activity [1] turn out when `CC(C)[C@@H](O)C(=O)NCCC(=O)NCCSCC(O)CC(O)CC(=O)O` (stereo partly drawn) was run?
**A.** inactive

**Q.** For `CC(C)[C@@H](O)C(=O)NCCC(=O)NCCSCCC(O)CC(=O)O` (stereo partly drawn), which inhibition [2] is on record?
**A.** 24%

**Q.** Which Activity [3] does the source give for `CC(C)[C@@H](O)C(=O)NCCC(=O)NCCSCC(=O)CC(O)CC(=O)O` (stereo partly drawn) here?
**A.** inactive
